{"source": "paper PMC7827406", "about": "“Structure–Activity Relationship (SAR) Study of Spautin-1 to Entail the Discovery of Novel NEK4 Inhibitors” (International Journal of Molecular Sciences, 2021)", "test_in_all_cases": "biochemical", "parameters_in_all_cases": "Eurofins KinaseProfiler full panel at Km ATP, residual kinase activity (%) relative to DMSO", "key": {"PTK5(h)": {"target": "T1, PTK5(h) (Homo sapiens, UniProt P42685)", "T1 construct": "gene FRK", "T1 sequence (P42685 whole entry)": "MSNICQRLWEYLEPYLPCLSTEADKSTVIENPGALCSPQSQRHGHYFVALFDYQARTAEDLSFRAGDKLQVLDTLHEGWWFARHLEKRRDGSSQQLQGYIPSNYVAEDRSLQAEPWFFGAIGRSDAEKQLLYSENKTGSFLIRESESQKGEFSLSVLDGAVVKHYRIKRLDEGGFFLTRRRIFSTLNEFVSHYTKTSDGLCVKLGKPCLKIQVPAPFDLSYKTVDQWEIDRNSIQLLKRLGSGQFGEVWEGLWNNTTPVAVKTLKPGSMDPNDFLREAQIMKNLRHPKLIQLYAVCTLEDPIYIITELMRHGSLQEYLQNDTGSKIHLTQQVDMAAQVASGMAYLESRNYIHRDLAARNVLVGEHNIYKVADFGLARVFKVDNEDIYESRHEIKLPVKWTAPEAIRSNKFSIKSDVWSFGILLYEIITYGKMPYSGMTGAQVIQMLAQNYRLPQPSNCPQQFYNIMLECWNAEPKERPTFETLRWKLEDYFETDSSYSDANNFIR", "outline": "(§1)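 Two 10 µM single-concentration screens were run: a competition-binding screen, in which DNA-tagged kinase bound to immobilized ligands was quantified by qPCR, and a radiometric activity panel at Km ATP. Each is expressed as residual kinase activity (%).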"}, "PAK2(h)": {"target": "PAK2(h) (Homo sapiens, UniProt Q13177)", "sequence (Q13177 whole entry)": "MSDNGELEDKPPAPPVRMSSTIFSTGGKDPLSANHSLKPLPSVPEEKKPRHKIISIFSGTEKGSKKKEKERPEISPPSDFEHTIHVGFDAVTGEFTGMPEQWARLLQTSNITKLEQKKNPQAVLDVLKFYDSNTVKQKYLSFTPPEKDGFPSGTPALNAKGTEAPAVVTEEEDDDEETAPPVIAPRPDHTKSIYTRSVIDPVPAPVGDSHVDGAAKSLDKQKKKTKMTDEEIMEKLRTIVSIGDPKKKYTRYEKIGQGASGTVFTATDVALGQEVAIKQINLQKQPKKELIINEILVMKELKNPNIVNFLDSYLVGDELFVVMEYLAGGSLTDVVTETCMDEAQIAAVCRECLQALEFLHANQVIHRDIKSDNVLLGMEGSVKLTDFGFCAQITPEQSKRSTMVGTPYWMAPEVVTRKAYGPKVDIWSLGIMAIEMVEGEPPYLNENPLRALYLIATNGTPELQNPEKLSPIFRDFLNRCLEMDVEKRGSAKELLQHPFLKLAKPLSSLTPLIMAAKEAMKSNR", "outline": "as §1"}, "LIMK2(h)": {"target": "LIMK2(h) (Homo sapiens, UniProt P53671)", "outline": "as §1"}, "CaMKIV(h)": {"target": "T2, CaMKIV(h) (Homo sapiens, UniProt Q16566)", "T2 construct": "gene CAMK4", "T2 sequence (Q16566 1-473)": "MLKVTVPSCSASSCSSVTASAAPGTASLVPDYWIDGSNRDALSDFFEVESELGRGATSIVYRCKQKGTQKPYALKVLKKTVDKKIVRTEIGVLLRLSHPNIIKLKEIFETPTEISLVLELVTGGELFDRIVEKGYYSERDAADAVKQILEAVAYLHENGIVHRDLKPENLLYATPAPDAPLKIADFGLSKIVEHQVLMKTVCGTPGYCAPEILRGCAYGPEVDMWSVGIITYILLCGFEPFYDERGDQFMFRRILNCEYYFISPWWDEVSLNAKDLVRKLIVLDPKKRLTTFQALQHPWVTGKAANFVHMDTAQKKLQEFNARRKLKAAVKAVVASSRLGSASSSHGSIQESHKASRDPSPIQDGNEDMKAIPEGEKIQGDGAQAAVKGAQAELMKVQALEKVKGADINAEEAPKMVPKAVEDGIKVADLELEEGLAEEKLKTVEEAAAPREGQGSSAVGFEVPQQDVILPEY", "outline": "as §1"}, "GCK(h)": {"target": "T3, GCK(h) (Homo sapiens, UniProt Q12851)", "T3 construct": "gene MAP4K2", "T3 sequence (Q12851 1-820)": "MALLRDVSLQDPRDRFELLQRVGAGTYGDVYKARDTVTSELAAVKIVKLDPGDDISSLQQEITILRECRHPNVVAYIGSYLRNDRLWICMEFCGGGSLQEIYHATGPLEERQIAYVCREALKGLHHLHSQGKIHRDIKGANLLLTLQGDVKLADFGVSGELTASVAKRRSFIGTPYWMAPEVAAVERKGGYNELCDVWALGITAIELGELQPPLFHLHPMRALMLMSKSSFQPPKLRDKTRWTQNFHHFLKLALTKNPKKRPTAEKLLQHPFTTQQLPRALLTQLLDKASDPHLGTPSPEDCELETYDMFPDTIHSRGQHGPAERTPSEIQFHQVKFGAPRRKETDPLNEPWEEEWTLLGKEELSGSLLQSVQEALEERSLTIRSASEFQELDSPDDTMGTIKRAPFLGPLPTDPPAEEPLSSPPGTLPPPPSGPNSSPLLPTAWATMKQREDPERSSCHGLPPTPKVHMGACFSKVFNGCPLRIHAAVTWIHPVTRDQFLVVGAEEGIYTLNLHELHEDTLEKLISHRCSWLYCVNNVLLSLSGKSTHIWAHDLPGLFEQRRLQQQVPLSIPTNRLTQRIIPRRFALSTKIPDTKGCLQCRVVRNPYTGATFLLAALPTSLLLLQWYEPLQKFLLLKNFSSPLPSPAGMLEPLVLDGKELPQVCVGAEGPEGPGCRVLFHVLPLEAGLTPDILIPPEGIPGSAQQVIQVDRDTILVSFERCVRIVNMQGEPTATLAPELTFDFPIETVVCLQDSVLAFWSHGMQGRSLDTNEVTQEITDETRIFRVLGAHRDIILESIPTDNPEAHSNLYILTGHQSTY", "outline": "as §1"}, "CaMKI(h)": {"target": "T4, CaMKI(h) (Homo sapiens, UniProt Q14012)", "T4 construct": "gene CAMK1", "T4 sequence (Q14012 whole entry)": "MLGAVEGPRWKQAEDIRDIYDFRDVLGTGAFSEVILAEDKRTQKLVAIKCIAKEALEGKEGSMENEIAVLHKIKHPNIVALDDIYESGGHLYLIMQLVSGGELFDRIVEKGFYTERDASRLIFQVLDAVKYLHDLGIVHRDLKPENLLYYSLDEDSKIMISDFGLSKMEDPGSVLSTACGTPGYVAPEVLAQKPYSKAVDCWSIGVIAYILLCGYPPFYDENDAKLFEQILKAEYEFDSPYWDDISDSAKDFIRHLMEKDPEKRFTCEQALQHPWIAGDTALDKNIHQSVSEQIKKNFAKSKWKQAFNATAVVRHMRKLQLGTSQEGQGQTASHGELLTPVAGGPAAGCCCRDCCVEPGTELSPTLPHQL", "outline": "as §1"}, "SLK(h)": {"target": "SLK(h) (Homo sapiens, UniProt Q9H2G2)", "sequence (Q9H2G2 whole entry)": "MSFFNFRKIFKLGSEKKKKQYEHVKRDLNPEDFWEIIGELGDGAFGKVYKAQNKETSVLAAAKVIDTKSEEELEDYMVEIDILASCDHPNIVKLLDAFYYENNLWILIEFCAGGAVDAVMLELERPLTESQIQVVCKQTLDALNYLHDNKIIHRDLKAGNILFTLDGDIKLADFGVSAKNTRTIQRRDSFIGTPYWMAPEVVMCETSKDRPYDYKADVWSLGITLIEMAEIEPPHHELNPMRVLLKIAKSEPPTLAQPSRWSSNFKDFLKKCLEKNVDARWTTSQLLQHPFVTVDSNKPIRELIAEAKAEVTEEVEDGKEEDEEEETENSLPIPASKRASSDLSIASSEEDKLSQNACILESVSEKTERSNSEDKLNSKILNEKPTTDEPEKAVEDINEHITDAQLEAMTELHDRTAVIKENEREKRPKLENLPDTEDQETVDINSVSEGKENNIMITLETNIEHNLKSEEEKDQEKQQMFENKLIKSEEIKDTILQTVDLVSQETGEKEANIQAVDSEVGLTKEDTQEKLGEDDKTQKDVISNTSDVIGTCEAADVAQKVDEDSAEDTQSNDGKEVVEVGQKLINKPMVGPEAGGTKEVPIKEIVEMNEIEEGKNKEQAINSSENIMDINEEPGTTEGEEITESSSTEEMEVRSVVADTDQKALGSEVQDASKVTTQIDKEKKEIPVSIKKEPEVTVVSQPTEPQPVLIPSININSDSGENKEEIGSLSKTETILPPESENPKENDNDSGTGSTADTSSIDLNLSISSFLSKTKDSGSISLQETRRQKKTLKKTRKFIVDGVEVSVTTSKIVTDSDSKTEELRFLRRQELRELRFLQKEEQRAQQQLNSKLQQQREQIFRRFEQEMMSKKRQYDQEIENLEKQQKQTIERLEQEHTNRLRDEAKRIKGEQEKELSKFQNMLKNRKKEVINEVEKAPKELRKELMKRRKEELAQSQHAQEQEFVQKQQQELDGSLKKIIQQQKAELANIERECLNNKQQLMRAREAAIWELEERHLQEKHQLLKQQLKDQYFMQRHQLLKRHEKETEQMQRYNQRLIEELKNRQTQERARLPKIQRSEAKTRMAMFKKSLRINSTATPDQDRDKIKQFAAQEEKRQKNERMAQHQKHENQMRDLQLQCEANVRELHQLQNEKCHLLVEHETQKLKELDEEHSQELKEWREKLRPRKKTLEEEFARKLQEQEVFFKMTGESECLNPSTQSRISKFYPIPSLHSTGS", "outline": "as §1"}, "WNK1(h)": {"target": "WNK1(h) (Homo sapiens, UniProt Q9H4A3)", "sequence (Q9H4A3 whole entry)": "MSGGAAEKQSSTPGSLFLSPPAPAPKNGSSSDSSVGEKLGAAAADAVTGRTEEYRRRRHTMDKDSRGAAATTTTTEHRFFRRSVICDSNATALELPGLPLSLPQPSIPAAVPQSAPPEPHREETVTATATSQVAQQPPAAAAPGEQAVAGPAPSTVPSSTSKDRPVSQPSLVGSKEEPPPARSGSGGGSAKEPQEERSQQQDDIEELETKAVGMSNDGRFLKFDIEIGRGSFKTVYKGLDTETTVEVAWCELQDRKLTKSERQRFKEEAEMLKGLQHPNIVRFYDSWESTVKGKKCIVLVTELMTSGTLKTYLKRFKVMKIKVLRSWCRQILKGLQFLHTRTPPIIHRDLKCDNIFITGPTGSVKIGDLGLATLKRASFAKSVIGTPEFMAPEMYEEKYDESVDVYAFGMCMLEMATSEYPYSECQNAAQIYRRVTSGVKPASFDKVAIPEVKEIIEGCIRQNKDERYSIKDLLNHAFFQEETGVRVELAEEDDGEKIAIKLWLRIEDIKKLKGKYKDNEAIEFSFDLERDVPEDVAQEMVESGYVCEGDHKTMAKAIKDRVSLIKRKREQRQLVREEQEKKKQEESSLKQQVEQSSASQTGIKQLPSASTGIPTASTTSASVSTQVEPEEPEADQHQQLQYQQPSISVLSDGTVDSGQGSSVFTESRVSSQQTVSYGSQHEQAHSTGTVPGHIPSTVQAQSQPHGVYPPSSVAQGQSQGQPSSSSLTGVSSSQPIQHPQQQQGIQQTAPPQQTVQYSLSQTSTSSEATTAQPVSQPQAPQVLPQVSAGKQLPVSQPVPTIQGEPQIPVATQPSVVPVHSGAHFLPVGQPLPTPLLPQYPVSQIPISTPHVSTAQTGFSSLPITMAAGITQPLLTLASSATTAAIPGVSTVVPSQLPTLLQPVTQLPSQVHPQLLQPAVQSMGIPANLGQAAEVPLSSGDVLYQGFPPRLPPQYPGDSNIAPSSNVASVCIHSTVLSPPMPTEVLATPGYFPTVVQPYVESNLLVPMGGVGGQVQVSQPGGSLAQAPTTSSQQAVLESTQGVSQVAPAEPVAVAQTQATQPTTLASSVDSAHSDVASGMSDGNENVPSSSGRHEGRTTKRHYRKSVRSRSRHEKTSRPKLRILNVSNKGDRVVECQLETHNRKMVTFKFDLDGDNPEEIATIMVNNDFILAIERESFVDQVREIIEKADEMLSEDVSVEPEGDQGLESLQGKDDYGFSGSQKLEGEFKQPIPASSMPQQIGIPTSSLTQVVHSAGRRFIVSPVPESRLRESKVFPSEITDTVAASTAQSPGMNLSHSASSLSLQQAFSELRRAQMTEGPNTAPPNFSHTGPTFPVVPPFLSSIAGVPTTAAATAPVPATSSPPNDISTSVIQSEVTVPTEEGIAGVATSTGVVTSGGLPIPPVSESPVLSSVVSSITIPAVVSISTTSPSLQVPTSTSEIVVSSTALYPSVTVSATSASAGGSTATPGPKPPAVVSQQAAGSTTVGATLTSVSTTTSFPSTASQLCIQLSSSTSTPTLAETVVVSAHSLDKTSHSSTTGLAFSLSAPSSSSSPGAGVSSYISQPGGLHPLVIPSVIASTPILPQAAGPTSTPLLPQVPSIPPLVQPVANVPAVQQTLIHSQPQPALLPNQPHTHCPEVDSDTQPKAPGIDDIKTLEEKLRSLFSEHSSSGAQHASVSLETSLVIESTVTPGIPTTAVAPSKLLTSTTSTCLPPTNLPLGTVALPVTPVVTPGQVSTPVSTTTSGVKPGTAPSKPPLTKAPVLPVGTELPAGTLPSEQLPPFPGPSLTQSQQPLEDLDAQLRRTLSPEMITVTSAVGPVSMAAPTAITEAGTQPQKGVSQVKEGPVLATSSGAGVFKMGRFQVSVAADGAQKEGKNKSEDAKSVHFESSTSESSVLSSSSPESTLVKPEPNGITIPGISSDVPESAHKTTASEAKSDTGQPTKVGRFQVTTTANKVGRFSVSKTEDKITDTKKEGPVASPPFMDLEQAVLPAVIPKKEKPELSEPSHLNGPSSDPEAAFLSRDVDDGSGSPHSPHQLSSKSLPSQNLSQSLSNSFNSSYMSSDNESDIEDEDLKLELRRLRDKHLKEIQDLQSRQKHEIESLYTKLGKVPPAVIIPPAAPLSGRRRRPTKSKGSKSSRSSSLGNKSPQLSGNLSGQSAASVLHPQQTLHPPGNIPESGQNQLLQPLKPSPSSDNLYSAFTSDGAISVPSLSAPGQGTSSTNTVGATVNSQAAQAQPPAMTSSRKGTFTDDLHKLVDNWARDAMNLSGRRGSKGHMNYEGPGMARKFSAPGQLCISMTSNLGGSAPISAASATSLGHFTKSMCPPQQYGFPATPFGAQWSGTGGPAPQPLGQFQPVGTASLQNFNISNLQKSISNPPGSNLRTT", "outline": "as §1"}, "[1]": {"conditions": "read-out: Residual activity (%) Spautin-1 5aa"}, "[2]": {"conditions": "read-out: Residual activity (%) 5as"}, "[3]": {"conditions": "read-out: Residual activity (%) 5at"}, "[4]": {"conditions": "read-out: Residual activity (%) 5ay"}}, "note": "Like-named read-outs stand apart in the source and are kept apart here."}
{"smiles": "Fc1ccc(CNc2ncnc3ccc(F)cc23)cc1", "note": "[5aa, 6-Fluoro-N-(4-fluorobenzyl)-4-Quinazolinamine]", "values": [{"measurement": "remaining activity at 10 µM", "setting": "PTK5(h); [1]", "value": 85, "unit": "%"}, {"measurement": "remaining activity at 10 µM", "setting": "PAK2(h); [1]", "value": 87, "unit": "%"}, {"measurement": "remaining activity at 10 µM", "setting": "LIMK2(h); [1]", "value": 94, "unit": "%"}, {"measurement": "remaining activity at 10 µM", "setting": "CaMKIV(h); [1]", "value": 81, "unit": "%"}, {"measurement": "remaining activity at 10 µM", "setting": "GCK(h); [1]", "value": 109, "unit": "%"}, {"measurement": "remaining activity at 10 µM", "setting": "CaMKI(h); [1]", "value": 90, "unit": "%"}, {"measurement": "remaining activity at 10 µM", "setting": "SLK(h); [1]", "value": 98, "unit": "%"}, {"measurement": "remaining activity at 10 µM", "setting": "WNK1(h); [1]", "value": 78, "unit": "%"}]}
{"smiles": "Fc1ccc(CCNc2ncnc3ccc(F)cc23)cc1", "note": "[5as, 6-Fluoro-N-[2-(4-Fluorophenyl)Ethyl]-4-Quinazolinamine]", "values": [{"measurement": "remaining activity at 10 µM", "setting": "PTK5(h); [2]", "value": 84, "unit": "%"}, {"measurement": "remaining activity at 10 µM", "setting": "PAK2(h); [2]", "value": 94, "unit": "%"}, {"measurement": "remaining activity at 10 µM", "setting": "LIMK2(h); [2]", "value": 87, "unit": "%"}, {"measurement": "remaining activity at 10 µM", "setting": "CaMKIV(h); [2]", "value": 75, "unit": "%"}, {"measurement": "remaining activity at 10 µM", "setting": "GCK(h); [2]", "value": 88, "unit": "%"}, {"measurement": "remaining activity at 10 µM", "setting": "CaMKI(h); [2]", "value": 60, "unit": "%"}, {"measurement": "remaining activity at 10 µM", "setting": "SLK(h); [2]", "value": 77, "unit": "%"}, {"measurement": "remaining activity at 10 µM", "setting": "WNK1(h); [2]", "value": 81, "unit": "%"}]}
{"smiles": "Fc1ccc2ncnc(NCCc3ccc(Cl)cc3)c2c1", "note": "[5at, N-[2-(4-Chlorophenyl)Ethyl]-6-Fluoro-4-Quinazolinamine]", "values": [{"measurement": "remaining activity at 10 µM", "setting": "PTK5(h); [3]", "value": 95, "unit": "%"}, {"measurement": "remaining activity at 10 µM", "setting": "PAK2(h); [3]", "value": 78, "unit": "%"}, {"measurement": "remaining activity at 10 µM", "setting": "LIMK2(h); [3]", "value": 84, "unit": "%"}, {"measurement": "remaining activity at 10 µM", "setting": "CaMKIV(h); [3]", "value": 81, "unit": "%"}, {"measurement": "remaining activity at 10 µM", "setting": "GCK(h); [3]", "value": 87, "unit": "%"}, {"measurement": "remaining activity at 10 µM", "setting": "CaMKI(h); [3]", "value": 104, "unit": "%"}, {"measurement": "remaining activity at 10 µM", "setting": "SLK(h); [3]", "value": 78, "unit": "%"}, {"measurement": "remaining activity at 10 µM", "setting": "WNK1(h); [3]", "value": 92, "unit": "%"}]}
{"smiles": "COc1ccc2ncnc(Nc3cccc(F)c3)c2c1", "note": "[5ay, N-(3-Fluorophenyl)-6-Methoxy-4-Quinazolinamine]", "values": [{"measurement": "remaining activity at 10 µM", "setting": "PTK5(h); [4]", "value": 64, "unit": "%"}, {"measurement": "remaining activity at 10 µM", "setting": "PAK2(h); [4]", "value": 98, "unit": "%"}, {"measurement": "remaining activity at 10 µM", "setting": "LIMK2(h); [4]", "value": 103, "unit": "%"}, {"measurement": "remaining activity at 10 µM", "setting": "CaMKIV(h); [4]", "value": 68, "unit": "%"}, {"measurement": "remaining activity at 10 µM", "setting": "GCK(h); [4]", "value": 60, "unit": "%"}, {"measurement": "remaining activity at 10 µM", "setting": "CaMKI(h); [4]", "value": 93, "unit": "%"}, {"measurement": "remaining activity at 10 µM", "setting": "SLK(h); [4]", "value": 70, "unit": "%"}, {"measurement": "remaining activity at 10 µM", "setting": "WNK1(h); [4]", "value": 75, "unit": "%"}]}
